Measurements published in patent publication US20090060984A1, “ANIONIC SURFACTANTS LETHAL TO GRAM-POSITIVE BACTERIA” (priority 2007, published 2009).
Like-named read-outs stand apart in the source and are kept apart here.

Experiments:
S. aureus = assay type: cell-based, Staphylococcus aureus; conditions: laboratory acrylic clearcoat, 24 h contact time
From the text: A laboratory experimental solvent based acrylic paint is formulated and then used to challenge S. aureus by adding various levels of the invention silver anionic surfactants as described in Example 33. A binder is made by solution polymerization of butyl acrylate (25% w/w), methylmethacrylate (73.5% w/w), and methacrylic acid (1.5% w/w) in amylacetate using thermal initiation. This solution polymer is then used to make a 60% solids clearcoat binder in xylene/methanol (5:1 by weight). The silver anionic surfactants are dissolved in this same xylene/methanol mixture prior to addition to the clearcoat.

P. aeruginosa ATCC 15442 = conditions: for CFU/mL of E. coli at 24 hours / CFU/mL of E. coli at 12 hours: exposed to P. aeruginosa, polyurethane, microscope slides
Experimental: (§1) Escherichia coli ATCC 11229 (Culti-loops, Remel Europe, Dartford, Kent, UK) and Pseudomonas aeruginosa ATCC 15442 (Cuti-loops, Remel Europe, Dartford, Kent, UK) were selected as model Gram-negative organisms for the challenge testing of the antimicrobial coatings. Each bacterial strain was streaked for isolated colonies on Tryptic Soy Agar (TSA) plates (Difco, Becton Dickinson, Sparks, Md., U.S.A.) and incubated at 37° C. for 12 to 18 hours. Broth cultures were prepared by first picking 1-2 isolated colonies from TSA plates and inoculating 5 mL Tryptic Soy Broth (TSB; Difco, Becton Dickinson, Sparks, Md., U.S.A.) in a 16 mm test tube. This culture was grown in a shaking water bath at 150 RPM for 8 hours at 37° C. After the eight hours, 125 μL of this culture was added to 50 mL of TSB in a side-arm Klett flask and grown for approximately 8 hours in shaking water bath (150 RPM) at 37° C. The bacterial broths were grown to an A590 of 1.2-1.5, which correlated to approximately 10^9 CFU (colony forming units)/mL. 25 mL of this broth were transferred to a sterile 30 mL Oakridge tube and centrifuged at 12,000×g for 10 minutes at 4° C. (Sorval SS34 rotor) to pelletize the bacteria. The bacterial pellet was washed once and resuspended in 25 mL of phosphate buffer solution (PBS; BBL, FTA Hemaglutination Buffer, Becton Dickinson, Sparks, Md., U.S.A.). The suspension was diluted with PBS to achieve the target range of 10^5-10^6 CFU/mL and used to inoculate the slides containing antibacterial coatings.
(§2) The 10% substitution on this weight basis corresponds to substitution of one tenth of the total surfactant weight or to 3% of the total composition weight.
The second set of coatings was made on microscope slides and challenged with E. coli ATCC 11229 and P. aeruginosa ATCC 15442. In these coatings, the gradient levels of incorporated silver were: 0%, 0.02%, 0.05%, 0.1%, 0.2%, 0.5%, 1.0% and 2.0% of the 30% NaAOT control amount. […] These gradients were tested at three inoculation time points, 0 hours, 12 hours, and 24 hours, with the 0% silver and 0 hours slides as controls.
The bacterial cultures were prepared as described in Example 12. Once the slides were inoculated, those assigned to incubate for 12 hours or 24 hours were placed in a humidified chamber by placing the Petri dishes containing the slides on test tubes that had been taped to the bottom of a 9″×13″ Pyrex dish. These test tubes held the Petri dishes just above the bottom of the dish, into which about 500 mL of sterile water was added. The Pyrex dish was also sterilized via UV irradiation (at least 4 minutes of exposure) prior to each challenge to protect against contamination. The dish was then covered with plastic wrap and tin foil and incubated at room temperature (20° C. to 25° C.).
At each time point (0 hours, 12 hours, and 24 hours), 25 mL of sterile PBS was pipetted into the Petri dish completely submerging the glass slide coated with the antimicrobial polymer.

E. coli ATCC 11229 = tested on: E. coli ATCC 11229
Experimental: as §1
The glass slides are then washed with acetone and water.
as §2
Bacterial cultures as prepared and described in Example 12 are applied to the surfactant polymer coated slides as prepared and described in Example 26. All inoculations are performed in a laminar flow hood. Sterilized slides are placed into a sterile Petri dish. Then 0.5 mL of the prepared bacterial suspensions is pipetted directly onto the slide, which spreads across the surface of the coating but remains on top of the slide.
The surviving bacteria from the exposures described in Example 27 are determined as follows: At each time point, 25 mL of sterile PBS is pipetted into the Petri dish completely submerging the slide, and a sterile plastic inoculating loop is used to release any viable bacteria remaining on the surface of the coating. Samples are plated onto TSA plates, and incubated at 37° C. for at least 24 h. Plates containing between 30 and 300 isolated colonies are counted.

[1] = 0.061% weight w/w Ag in coating (first column 0.113)
[2] = 0.122% weight w/w Ag in coating (first column 0.226)
[3] = […] weight w/w Ag in coating (first column 0.0574)
[4] = 0.061% weight w/w Ag in coating (first column 0.113), polyurethane, microscope slides
[5] = 0.122% weight w/w Ag in coating (first column 0.226), polyurethane, microscope slides
[6] = 24 hour exposure, polyurethane coated lantern slides
[7] = […] weight w/w Ag in coating (first column 0.0574), polyurethane, microscope slides

## CCCCC(CC)COC(=O)CC(C(=O)OCC(CC)CCCC)S(=O)(=O)[O-].[Ag+] (stereo not drawn) [AgAOT]
S. aureus
  Silver level with partial growth: this lowest level
P. aeruginosa ATCC 15442; 12 hours of exposure
  Overall silver level effective as bactericide: 0.06 % weight silver relative to coating weight
P. aeruginosa ATCC 15442; 24 h exposure
  Smallest level examined that appears effective at killing the P. aeruginosa: 0.0012 % weight Ag relative to overall coating weight
P. aeruginosa ATCC 15442; 24 hours of exposure
  Overall silver level effective as bactericide: 0.006 % weight silver relative to coating weight
P. aeruginosa ATCC 15442; 0.0061% weight w/w Ag in coating (first column 0.0113)
  CFU/mL of E. coli at 24 hours: 0, 0, 0 CFU/mL
P. aeruginosa ATCC 15442; [1]
  CFU/mL of E. coli at 12 hours: 0, 0, 0 CFU/mL
  CFU/mL of E. coli at 24 hours: 0, 0, 0 CFU/mL
P. aeruginosa ATCC 15442; [2]
  CFU/mL of E. coli at 12 hours: 0, 0, 0 CFU/mL
  CFU/mL of E. coli at 24 hours: 0, 0, 0 CFU/mL
P. aeruginosa ATCC 15442; […] weight w/w Ag in coating (first column 0.00230)
  CFU/mL of E. coli at 24 hours: 0, 0, 0 CFU/mL
P. aeruginosa ATCC 15442; [3]
  CFU/mL of E. coli at 12 hours: 0, 0, 0 CFU/mL
  CFU/mL of E. coli at 24 hours: 0, 0, 0 CFU/mL
E. coli ATCC 11229; [4]
  CFU/mL of E. coli at 12 hours: 0, 0, 0 CFU/mL
  CFU/mL of E. coli at 24 hours: 0, 0, 0 CFU/mL
E. coli ATCC 11229; [5]
  CFU/mL of E. coli at 12 hours: 0, 0, 0 CFU/mL
  CFU/mL of E. coli at 24 hours: 0, 0, 0 CFU/mL
E. coli ATCC 11229; 0.5% substituted for sodium salt in coating ([…] weight silver), polyurethane coated lantern slides
  CFU/mL of E. coli at 24 hours: 0; 0 CFU/mL
E. coli ATCC 11229; 1.0% substituted for sodium salt in coating (0.061% weight silver), polyurethane coated lantern slides
  CFU/mL of E. coli at 24 hours: 0; 0 CFU/mL
E. coli ATCC 11229; 3.0% substituted for sodium salt in coating ([…] weight silver), polyurethane coated lantern slides
  CFU/mL of E. coli at 24 hours: 0; 0 CFU/mL
E. coli ATCC 11229; 10.0% substituted for sodium salt in coating (0.61% weight silver), polyurethane coated lantern slides
  CFU/mL of E. coli at 24 hours: 0; 0 CFU/mL
E. coli ATCC 11229; 12 hours of exposure
  Overall silver level effective as bactericide: 0.06 % weight silver relative to coating weight
E. coli ATCC 11229; [6]
  Ag+ level resulting in complete killing of the E. coli: ≥ 0.031 % Ag+ relative to coating weig
  Level of substitution resulting in complete killing of the E. coli: ≥ 0.5 % weight relative to the 30% N
E. coli ATCC 11229; 24 hours of exposure
  Overall silver level effective as bactericide: 0.006 % weight silver relative to coating weight
E. coli ATCC 11229; […] weight w/w Ag in coating (first column 0.0226), polyurethane, microscope slides
  CFU/mL of E. coli at 24 hours: 0, 0, 0 CFU/mL
E. coli ATCC 11229; [7]
  CFU/mL of E. coli at 12 hours: 0, 0, 0 CFU/mL
  CFU/mL of E. coli at 24 hours: 0, 0, 0 CFU/mL
